# Values of other authors in PubChem BioAssay AID1259409 (Chemical Carcinogenesis Research Information System (CCRIS), 2018).
# Where a SMILES comes first, the peptide text is derived from it. Bridges are numbered along the chain shown (N, C = ends). [ ]: non-standard residue; d: D form.
# Tested on: rodent chemically induced tumor inhibition, incidence and multiplicity
# Experiment: CCRIS tumor inhibitor studies
compound,measurement,setting,value
CC(C)[C@@H]1NC(=O)[C@H](CCCCN)NC(=O)[C@@H](Cc2c[nH]c3ccccc23)NC(=O)[C@H](Cc2ccc(O)cc2)NC(=O)[C@@H](NC(=O)[C@H](N)Cc2ccccc2)CSSC[C@@H](C(=O)N[C@@H](Cc2c[nH]c3ccccc23)C(N)=O)NC1=O (H-[dF]CY[dW]KVCW-NH2; disulfide 2-7),"tumour outcome (control, treated, inhibition, significance)","Carcinogen: N-BUTYL-N-(4-HYDROXYBUTYL)NITROSAMINE, 3817-11-6, Dose [Inhibitor]: 0, 50 UG/RAT/D FOR 12 WK BEGINNING POST CARCINOGEN TREATMENT (STUDY DURATION: 17 WK), Route [Inhibitor]: SUBCUTANEOUS, Species: RAT, Strain/Sex: F344/FEMALE, Target Tissue: Type of Lesion: URINARY BLADDER: CARCINOMA IN SITU, Dose [Carcinogen]: 0.05% IN DRINKING WATER FOR 4 WK, Promoter: MITOMYCIN C, 50-07-7","10/40 (25%), 1/20 (5%), 80%, p<0.001"
same,"tumour outcome (control, treated, inhibition, significance)","Carcinogen: N-BUTYL-N-(4-HYDROXYBUTYL)NITROSAMINE, 3817-11-6, Dose [Inhibitor]: 0, 50 UG/RAT/D FOR 12 WK BEGINNING POST CARCINOGEN TREATMENT (STUDY DURATION: 17 WK), Route [Inhibitor]: SUBCUTANEOUS, Species: RAT, Strain/Sex: F344/FEMALE, Target Tissue: Type of Lesion: URINARY BLADDER: INVASIVE CARCINOMA, Dose [Carcinogen]: 0.05% IN DRINKING WATER FOR 4 WK, Promoter: MITOMYCIN C, 50-07-7","12/40 (30%), 0/20 (0%), 100%, not calculated"
same,"tumour outcome (control, treated, inhibition, significance)","Carcinogen: N-BUTYL-N-(4-HYDROXYBUTYL)NITROSAMINE, 3817-11-6, Dose [Inhibitor]: 0, 50 UG/RAT/D FOR 12 WK BEGINNING POST CARCINOGEN TREATMENT (STUDY DURATION: 17 WK), Route [Inhibitor]: SUBCUTANEOUS, Species: RAT, Strain/Sex: F344/FEMALE, Target Tissue: Type of Lesion: URINARY BLADDER: PAPILLOMA, Dose [Carcinogen]: 0.05% IN DRINKING WATER FOR 4 WK, Promoter: MITOMYCIN C, 50-07-7","20/40 (50%), 11/20 (55%), -10%, not significant"
same,"tumour outcome (control, treated, inhibition, significance)","Carcinogen: N-NITROSOBIS(2-OXOPROPYL)AMINE, 60599-38-4, Dose [Inhibitor]: 0, 35 UG/D FROM OSMOTIC PUMP FOR 2 MO, Route [Inhibitor]: SUBCUTANEOUS IMPLANT, Species: HAMSTER, Strain/Sex: SYRIAN/FEMALE, Target Tissue: Type of Lesion: PANCREAS: ADENOCARCINOMA, Promoter: NONE USED","12/12 (100%), 6/11 (55%), 45%, not calculated"
CCCCCCCC/C=C\CCCCCCCC(=O)O,"tumour outcome (control, treated, inhibition, significance)","Carcinogen: 1,2-DIMETHYLHYDRAZINE, 540-73-8, Dose [Inhibitor]: 0, 1 MG/D FOR 25 WK BEGINNING 3 WK PRIOR TO CARCINOGEN (STUDY DURATION: 25 WK), Route [Inhibitor]: ORAL, Species: RAT, Strain/Sex: CD-1/MALE, Target Tissue: Type of Lesion: COLON: TUMOR, Dose [Carcinogen]: 15 MG/KG 1/WK FOR 16 WK","17/22 (77%), 19/22 (86%), -12%, not significant"
same,"tumour outcome (control, treated, inhibition, significance)","Carcinogen: BENZO[A]PYRENE, 50-32-8, Dose [Inhibitor]: 25 MG IN 0.1 ML ACETONE 3/WK ADMINISTERED SIMULTANEOUSLY WITH CARCINOGEN FOR DURATION OF STUDY (STUDY DURATION: 440 D), Route [Inhibitor]: DERMAL, Species: MOUSE, Strain/Sex: ICR/FEMALE, Target Tissue: Type of Lesion: SKIN: PAPILLOMA, Dose [Carcinogen]: 5 UG IN 0.1 ML ACETONE 3/WK FOR DURATION OF STUDY, Promoter: NONE USED","16/50 (32%), 0/50 (0%), 100%, not calculated"
same,"tumour outcome (control, treated, inhibition, significance)","Carcinogen: BENZO[A]PYRENE, 50-32-8, Dose [Inhibitor]: 25 MG IN 0.1 ML ACETONE 3/WK ADMINISTERED SIMULTANEOUSLY WITH CARCINOGEN FOR DURATION OF STUDY (STUDY DURATION: 440 D), Route [Inhibitor]: DERMAL, Species: MOUSE, Strain/Sex: ICR/FEMALE, Target Tissue: Type of Lesion: SKIN: SQUAMOUS CARCINOMA, Dose [Carcinogen]: 5 UG IN 0.1 ML ACETONE 3/WK FOR DURATION OF STUDY, Promoter: NONE USED","12/50 (24%), 0/50 (0%), 100%, not calculated"
C[C@H]1CC[C@@]2(C)C(=CC[C@@H]3[C@@H]2CC[C@]2(C)C(=O)CC[C@@H]32)C1,"tumour outcome (control, treated, inhibition, significance)","Carcinogen: 7,12-DIMETHYLBENZ[A]ANTHRACENE, 57-97-6, Dose [Inhibitor]: 100 UG IN 0.2 ML ACETONE 1 HR BEFORE EACH WEEKLY APPLICATION OF DMBA (STUDY DURATION: 290 D), Route [Inhibitor]: DERMAL, Species: MOUSE, Strain/Sex: CD-1/FEMALE, Target Tissue: Type of Lesion: SKIN: CARCINOMA, Dose [Carcinogen]: 200 NMOL AT 6-7 WK OF AGE THEN 100 NMOL IN 0.2 ML ACETONE 1 WK BEGINNING 2 WK LATER, Promoter: NONE USED","14/28 (50%), 1/28 (4%), 92%, p<0.001"
same,outcome,"Carcinogen: 7,12-DIMETHYLBENZ[A]ANTHRACENE, 57-97-6, Dose [Inhibitor]: 400 UG IN 0.2 ML ACETONE 1 HR BEFORE EACH WEEKLY APPLICATION OF DMBA (STUDY DURATION: 290 D), Route [Inhibitor]: DERMAL, Species: MOUSE, Strain/Sex: CD-1/FEMALE, Target Tissue: Type of Lesion: SKIN: CARCINOMA, Dose [Carcinogen]: 200 NMOL AT 6-7 WK OF AGE THEN 100 NMOL IN 0.2 ML ACETONE 1/WK BEGINNING 2 WK LATER, Promoter: NONE USED","14/28 (50%), 3/29 (10), 80%, p<0.001"
COc1ccc([SeH])cc1,"tumour outcome (control, treated, inhibition, significance)","Carcinogen: BENZO[A]PYRENE, 50-32-8, Dose [Inhibitor]: 0, 3.3 UMOL/G DIET BEGINNING 1 WK PRIOR TO CARCINOGEN TREATMENT AND CONTINUING FOR 1 WK POST CARCINOGEN TREATMENT FOLLOW, Route [Inhibitor]: ORAL, Species: MOUSE, Strain/Sex: CD-1/FEMALE, Target Tissue: Type of Lesion: FORESTOMACH: PAPILLOMA, Dose [Carcinogen]: 1 MG IN 0.2 ML CORN OIL 2/WK FOR 4 WK, Promoter: NONE USED","85%, 75%, 12%, not significant"
COc1cc(C2OCC3C(c4ccc5c(c4)OCO5)OCC23)ccc1O (stereo unspecified),"tumour outcome (control, treated, inhibition, significance)","Carcinogen: 7,12-DIMETHYLBENZ[A]ANTHRACENE, 57-97-6, Dose [Inhibitor]: 0, 85 NMOL IN 0.1 ML ACETONE 2/WK FOR 20 WK APPLIED 1 HR PRIOR TO EACH PROMOTER DOSE (STUDY DURATION: 20 WK), Route [Inhibitor]: DERMAL, Species: MOUSE, Strain/Sex: ICR/FEMALE, Target Tissue: Type of Lesion: SKIN: PAPILLOMA, Dose [Carcinogen]: 100 UG IN 0.1 ML ACETONE ONCE, Promoter: 12-O-TETRADECANOYLPHORBOL-13-ACETATE, 16561-29-8","100%, 80%, 20%, not calculated"
COc1c(C)c(O)c(C(C)=O)c(O)c1Cc1c(O)c(CC=C(C)C)c(O)c(C(C)=O)c1O,"tumour outcome (control, treated, inhibition, significance)","Carcinogen: 7,12-DIMETHYLBENZ[A]ANTHRACENE, 57-97-6, Dose [Inhibitor]: 0, 162 NMOL IN 100 µL ACETONE 2/WK FOR 20 WK BEGINNING 1 WK POST CARCINOGEN DOSE (STUDY DURATION: 21 WK), Route [Inhibitor]: DERMAL, Species: MOUSE, Strain/Sex: ICR/FEMALE, Target Tissue: Type of Lesion: SKIN: TUMOR, Dose [Carcinogen]: 100 UG ONCE, Promoter: 12-O-TETRADECANOYLPHORBOL-13-ACETATE, 16561-29-8","40%, 36%, 10%, not significant"
same,"tumour outcome (control, treated, inhibition, significance)","Carcinogen: 7,12-DIMETHYLBENZ[A]ANTHRACENE, 57-97-6, Dose [Inhibitor]: 0, 1620 NMOL IN 100 µL ACETONE 2/WK FOR 20 WK BEGINNING POST CARCINOGEN DOSE (STUDY DURATION: 21 WK), Route [Inhibitor]: DERMAL, Species: MOUSE, Strain/Sex: ICR/FEMALE, Target Tissue: Type of Lesion: SKIN: TUMOR, Dose [Carcinogen]: 100 UG ONCE, Promoter: 12-O-TETRADECANOYLPHORBOL-13-ACETATE, 16561-29-8","52%, 0%, 100%, not calculated"
CC1(C)[C@@H](O[C@H]2O[C@H](C(=O)O)[C@@H](O)[C@H](O)[C@H]2O[C@@H]2O[C@H](C(=O)O)[C@@H](O)[C@H](O)[C@H]2O)CC[C@]2(C)[C@H]3C(=O)C=C4[C@@H]5C[C@@](C)(C(=O)O)CC[C@]5(C)CC[C@@]4(C)[C@]3(C)CC[C@@H]12,"tumour outcome (control, treated, inhibition, significance)","Carcinogen: 7,12-DIMETHYLBENZ[A]ANTHRACENE, 57-97-6, Dose [Inhibitor]: 0, 0.05% IN DRINKING WATER BEGINNING 50 D PRIOR TO CARCINOGEN TREATMENT AND CONTINUING FOR THE DURATION OF STUDY (STUDY, Route [Inhibitor]: ORAL, Species: MOUSE, Strain/Sex: SENCAR/FEMALE, Target Tissue: Type of Lesion: SKIN: TUMOR, Dose [Carcinogen]: 40 NMOL IN 0.2 ML ACETONE ONCE, Promoter: 12-O-TETRADECANOYLPHORBOL-13-ACETATE, 16561-29-8","100%, 100%, 0%, not significant"
same,"tumour outcome (control, treated, inhibition, significance)","Carcinogen: 7,12-DIMETHYLBENZ[A]ANTHRACENE, 57-97-6, Dose [Inhibitor]: 0, 0.05% IN DRINKING WATER FOR 50 D PRIOR TO CARCINOGEN TREATMENT (STUDY DURATION: 23 WK), Route [Inhibitor]: ORAL, Species: MOUSE, Strain/Sex: SENCAR/FEMALE, Target Tissue: Type of Lesion: SKIN: TUMOR, Dose [Carcinogen]: 40 NMOL IN 0.2 ML ACETONE ONCE, Promoter: 12-O-TETRADECANOYLPHORBOL-13-ACETATE, 16561-29-8","100%, 100%, 0%, not significant"
same,"tumour outcome (control, treated, inhibition, significance)","Carcinogen: DIETHYLNITROSAMINE, 55-18-5, Dose [Inhibitor]: 0, 2 MG 3/WK FOR 32 WK BEGINNING 2 WK PRIOR TO CARCINOGEN TREATMENT (STUDY DURATION:32 WK), Route [Inhibitor]: INTRAMUSCULAR, Species: MOUSE, Strain/Sex: BALB/MALE, Target Tissue: Type of Lesion: LIVER :HEPATOCELLULAR CARCINOMA, Dose [Carcinogen]: 75 MG/KG 1/WK FOR 3 WK THEN 100 MG/KG 1/WK FOR 3 WK, Promoter: NONE USED","7/11 (64%), 3.14 (21%), 65%, p<0.05"
